Experimental data as given in publication PMC5750217 (Nature Communications, 2018).

How the values were obtained:
wild-type GltPh = target: T1, wild-type GltPh (Pyrococcus horikoshii, UniProt O59010); experiment: Proteoliposome transport assay, wild-type GltPh; type: biochemical; settings: for Transport of radiolabelled substrate into proteoliposomes (in words): 1 µM L-[3H]substrate, Na+ gradient, pH 7.5
T1 construct: hexa-His (N, cleaved yes); made in house; host or cells: Escherichia coli Top10 (pBAD)
T1 sequence (O59010 1-425): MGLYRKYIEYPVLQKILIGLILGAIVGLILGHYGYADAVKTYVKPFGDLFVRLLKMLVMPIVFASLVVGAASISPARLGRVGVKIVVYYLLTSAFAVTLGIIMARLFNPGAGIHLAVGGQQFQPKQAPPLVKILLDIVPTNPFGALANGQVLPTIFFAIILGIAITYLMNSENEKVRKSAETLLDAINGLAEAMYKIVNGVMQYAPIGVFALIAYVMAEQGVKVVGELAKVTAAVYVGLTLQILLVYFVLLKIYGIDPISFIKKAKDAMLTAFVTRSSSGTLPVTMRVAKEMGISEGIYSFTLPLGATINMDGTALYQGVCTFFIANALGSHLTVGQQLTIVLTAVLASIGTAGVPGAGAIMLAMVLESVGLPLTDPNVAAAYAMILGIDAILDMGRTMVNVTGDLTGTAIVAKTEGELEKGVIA
Method: (§1) Mutant and wild-type GltPh with an amino-terminal hexa-His tag were expressed in Escherichia coli Top10 cells (Invitrogen), which were grown in Luria broth medium at 37 °C. Ampicillin was added to a final concentration of 100 μg per ml. To induce expression of GltPh, 0.1% L-arabinose was added when cells reached an optical density of 0.6 at 660 nm, and cells were harvested 4 h post induction. Membranes were isolated, and then solubilised with n-dodecyl-β-D-maltopyranoside (C12M, Anatrace). Histidine containing proteins were purified using Ni^2+−nitrilotriacetic acid resin (Qiagen). The histidine tag was subsequently removed from GltPh by digestion with thrombin (10 U per mg protein) and the protein further purified on a Superdex 200 size exclusion column, where the detergent was exchanged to n-decyl-β-D-maltopyranoside (C10M, Anatrace).
(§2) Pure protein was reconstituted into liposomes composed of 75% E. coli Polar Lipid Extract and 25% 1-palmitoyl-2-oleoyl-sn-glycero-3 ^−phopshocholine (Avanti Polar Lipids). Lipids were mixed, dried under nitrogen and resuspended in internal buffer (100 mM KCl, 20 mM HEPES-Tris pH 7.5) using brief sonication (Laboratory Supplies Co.). The lipid suspension was frozen in liquid nitrogen and thawed at room temperature several times. Liposomes were formed by extrusion through 400 nm polycarbonate membranes (Avanti Polar Lipids) and were treated with Triton X-100 at a 0.5:1 (w/w) detergent to lipid ratio prior to the addition of protein at 0.25 μg protein per mg lipid. The protein/lipid mixture was left at room temperature for 30 min before detergent was removed using SM2 Biobeads (BioRad). The mixture was then incubated with gentle agitation, with four consecutive batches of Biobeads (80 mg per ml). Proteoliposomes were concentrated by centrifugation at 150,000 g for 30 min, resuspended at 100 mg lipid per ml and either used immediately or flash-frozen in liquid nitrogen and stored at −80 °C.
(§3) Mutant and wild-type GltPh-mediated transport of radiolabelled substrate was assayed by diluting proteoliposomes (100 mg lipid per ml) 133-fold into uptake buffer (100 mM NaCl, 20 mM HEPES-Tris pH 7.5, 1 μM valinomycin, 100 nM–1 µM L-[^3H]substrate) pre-warmed to 30 °C. At each time point, a 200 µl aliquot was removed and diluted 10-fold into ice-cold quench buffer (100 mM LiCl, 20 mM HEPES-Tris pH 7.5), followed by immediate filtration over nitrocellulose filters (0.22 μm pore size, Millipore). The filters were washed with ice-cold quench buffer and assayed for radioactivity using a Trilux beta counter (PerkinElmer). To establish substrate concentration–response curves, extraliposomal L-[^3H]substrate was varied between 500 nM and 100 µM, maintaining NaCl concentrations at 300 mM. For inhibitor concentration–response curves, for wild-type GltPh 100 nM L-[^3H]aspartate, and for mutant GltPh 1 µM L-[^3H]serine, was co-applied with varying inhibitor concentrations. Background levels of uptake were measured by diluting proteoliposomes into internal buffer (100 mM KCl, 20 mM HEPES-Tris pH 7.5) containing 1 µM of valinomycin and the indicated concentrations of L-[^3H]substrate.

GltPh-R397C = target: T2, GltPh-R397C (Pyrococcus horikoshii, UniProt O59010, R397C); experiment: biochemical; settings: for Transport of radiolabelled substrate into proteoliposomes (in words): 100 nM L-[3H]aspartate, 1 µM L-[3H]glutamine, 10 µM 35S-cysteine ± 1 mM DTT, Na+ gradient
T2 construct: hexa-His (N, cleaved yes); made in house; host or cells: Escherichia coli Top10 (pBAD)
T2 sequence (O59010 whole entry R397C): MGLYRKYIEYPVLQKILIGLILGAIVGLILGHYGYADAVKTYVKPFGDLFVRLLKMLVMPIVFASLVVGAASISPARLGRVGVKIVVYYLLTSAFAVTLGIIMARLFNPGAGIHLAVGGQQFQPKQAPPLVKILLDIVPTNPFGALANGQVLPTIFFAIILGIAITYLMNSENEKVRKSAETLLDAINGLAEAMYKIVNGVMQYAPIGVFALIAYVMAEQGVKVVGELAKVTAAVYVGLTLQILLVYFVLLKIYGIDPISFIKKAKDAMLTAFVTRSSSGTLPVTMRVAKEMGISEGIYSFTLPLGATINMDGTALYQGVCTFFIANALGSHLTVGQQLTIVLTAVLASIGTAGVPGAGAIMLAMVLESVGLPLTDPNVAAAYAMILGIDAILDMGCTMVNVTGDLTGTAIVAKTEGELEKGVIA
Method: as §1, §2, §3
Supplementary Figure 6. GltPh‐R397C, ASCT1 and ASCT2 are functional cysteine transporters. (a) Purified GltPh‐R397C was reconstituted into liposomes and 10µM 35S‐cysteine transport was measured over 10 minutes alone or in the presence of 1 mM dithiothreitol (DTT). Background levels of uptake were measured by diluting proteoliposomes into internal buffer (100 mM KCl, 20 mM HEPES‐Tris pH 7.5) containing 1 µM of valinomycin and the 10µM 35S‐cysteine. […]
(c) Neutral amino acid exchange in GltPh‐R397C. Counterflow experiments in which Na+ and amino acid loaded liposomes were used to detect the transport of a range of unlabelled neutral amino acids by exchanging with external 3H‐serine. Counterflow assays were performed using liposomes containing 200mM NaCl, 20 mM HEPES/Tris pH 7.5, and 1 mM of unlabelled amino acid as indicated. […]

SMILES | Transport of radiolabelled substrate into proteoliposomes (in words) (wild-type GltPh) | Transport of radiolabelled substrate into proteoliposomes (in words) (GltPh-R397C; GltPh-R397C, listed as L-Glutamine) | Transport of radiolabelled substrate into proteoliposomes (in words) (GltPh-R397C; GltPh-R397C, listed as L-[^3H]glutamine) | Reduction of L-[3H]serine transport by unlabelled competitor (GltPh-R397C; GltPh-R397C, 10 µM L-[3H]serine, 100-fold excess unlabelled amino acid) | IC50 for inhibition of L-[3H]aspartate transport (wild-type GltPh; 100 nM L-[3H]aspartate) | IC50 for inhibition of L-[3H]serine transport (GltPh-R397C; GltPh-R397C, 1 µM L-[3H]serine) | EC50 (GltPh-R397C) | Fold lower affinity for GltPh-R397C compared with L-aspartate for wild-type GltPh (GltPh-R397C; serine at GltPh-R397C vs L-aspartate at wild-type GltPh)
NC(=O)CC[C@H](N)C(=O)O [L-glutamine] | not transported | not a substrate | not transported at levels above background | able to bind and inhibit |  |  |  | 
N[C@@H](CCC(=O)Nc1ccc([N+](=O)[O-])cc1)C(=O)O [GPNA, glutamyl-p-nitroanilide] |  |  |  |  | ineffective | poorly inhibited |  | 
N[C@@H](CO)C(=O)O [L-serine] | not transported |  |  |  |  |  | 4.5 ± 0.9 µM | 100 fold
